Reference: US20260000763A1, “Methods of Manufacturing Therapeutic Cells” (The Board of Trustees of the Leland Stanford Junior …, priority 2022, published 2026)

Test system: HA-INO-CAR T cells
Experiment: Ciclopirox treatment of inosine-cultured HA-CAR T cells, memory subsets by flow cytometry
Assay type: cell-based, human
Settings: 20 μM CPX for 24 h, day 16, CD8+ inosine-cultured HA-CAR T cells
Source text: Concatenated samples from n=3 donors. […] (Left) Dot plots of representative donor shown.

Cc1cc(C2CCCCC2)n(O)c(=O)c1 [CPX, ciclopirox]
frequency of central memory-like cells: striking decrease
